One test concerns the target DAT (Mus musculus, UniProt Q61327). As to the kind of experiment: [3H]WIN 35428 binding displacement in mouse striatum homogenate.
The target in another test is mSERT (Mus musculus, UniProt Q60857). As to the kind of experiment: [3H]5-HT uptake inhibition in transiently transfected mSERT-HEK cells. The format is cell-based.
Another test has as its target mDAT (Mus musculus, UniProt Q61327). Description: [3H]MPP+ uptake inhibition in transiently transfected mDAT-HEK cells. In kind it is cell-based.
Another test concerns the target mNET (Mus musculus, UniProt O55192). Description: [3H]MPP+ uptake inhibition in transiently transfected mNET-HEK cells. The format is cell-based.
For a further test, the target named is T1, hPMAT (Homo sapiens, UniProt Q7RTT9).
T1 sequence (Q7RTT9 1-530): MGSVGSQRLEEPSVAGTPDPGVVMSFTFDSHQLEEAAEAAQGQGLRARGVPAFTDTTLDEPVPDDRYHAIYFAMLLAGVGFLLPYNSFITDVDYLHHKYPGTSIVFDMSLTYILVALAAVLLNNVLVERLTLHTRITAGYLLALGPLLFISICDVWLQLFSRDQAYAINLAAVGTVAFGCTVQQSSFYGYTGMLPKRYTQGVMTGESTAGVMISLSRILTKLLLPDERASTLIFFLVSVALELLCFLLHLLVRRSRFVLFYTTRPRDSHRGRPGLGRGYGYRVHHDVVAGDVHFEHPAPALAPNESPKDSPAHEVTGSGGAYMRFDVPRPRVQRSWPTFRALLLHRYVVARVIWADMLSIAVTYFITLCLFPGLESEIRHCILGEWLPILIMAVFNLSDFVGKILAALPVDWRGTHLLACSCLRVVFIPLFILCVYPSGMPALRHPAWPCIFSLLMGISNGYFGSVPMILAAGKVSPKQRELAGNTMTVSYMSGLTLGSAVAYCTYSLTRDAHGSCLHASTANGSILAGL
Description: [3H]MPP+ uptake competition in stable hPMAT-HEK cells. The format is cell-based.

The target of a further test is T2, hOCT2 (Homo sapiens, UniProt O15244).
T2 sequence (O15244 1-555): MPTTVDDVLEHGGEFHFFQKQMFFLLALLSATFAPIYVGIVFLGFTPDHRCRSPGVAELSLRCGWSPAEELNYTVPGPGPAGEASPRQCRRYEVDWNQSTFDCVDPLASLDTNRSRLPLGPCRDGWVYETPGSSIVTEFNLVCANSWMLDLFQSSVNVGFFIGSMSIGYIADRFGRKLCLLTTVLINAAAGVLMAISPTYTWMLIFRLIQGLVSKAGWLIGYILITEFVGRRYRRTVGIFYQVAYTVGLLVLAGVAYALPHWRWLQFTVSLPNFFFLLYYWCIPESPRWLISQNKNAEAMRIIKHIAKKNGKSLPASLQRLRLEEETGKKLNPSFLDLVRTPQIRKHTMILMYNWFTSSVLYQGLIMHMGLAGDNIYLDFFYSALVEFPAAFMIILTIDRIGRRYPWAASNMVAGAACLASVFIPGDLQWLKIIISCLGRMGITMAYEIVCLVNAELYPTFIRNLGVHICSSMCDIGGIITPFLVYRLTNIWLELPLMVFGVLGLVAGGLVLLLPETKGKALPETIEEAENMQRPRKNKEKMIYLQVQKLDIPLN
Description: [3H]MPP+ uptake competition in stable hOCT2-HEK cells. In kind it is cell-based. Conditions: 10 min room temperature.

Another test has as its target T3, hOCT3 (Homo sapiens, UniProt O75751).
T3 sequence (O75751 1-556): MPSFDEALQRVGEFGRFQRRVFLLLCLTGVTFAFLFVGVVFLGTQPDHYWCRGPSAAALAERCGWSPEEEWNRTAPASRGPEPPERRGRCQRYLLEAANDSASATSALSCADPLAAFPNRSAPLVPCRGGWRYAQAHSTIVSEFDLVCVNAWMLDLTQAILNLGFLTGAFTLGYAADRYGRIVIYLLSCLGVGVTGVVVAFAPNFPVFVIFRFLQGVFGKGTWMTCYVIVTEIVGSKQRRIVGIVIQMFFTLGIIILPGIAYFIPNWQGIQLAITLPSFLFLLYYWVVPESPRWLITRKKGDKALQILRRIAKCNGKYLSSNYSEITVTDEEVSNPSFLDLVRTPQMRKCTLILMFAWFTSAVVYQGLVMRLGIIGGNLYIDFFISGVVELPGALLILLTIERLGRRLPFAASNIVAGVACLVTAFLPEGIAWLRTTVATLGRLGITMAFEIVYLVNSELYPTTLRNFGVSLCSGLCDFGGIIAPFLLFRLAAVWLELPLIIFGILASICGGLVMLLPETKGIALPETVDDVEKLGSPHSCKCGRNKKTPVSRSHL
Description: [3H]MPP+ uptake competition in stable hOCT3-HEK cells. In kind it is cell-based. Conditions: 10 min room temperature.

The mark [1] stands for this setting: read-out: hPMAT-HEK IC50, 10 nM [3H]MPP+ uptake, 10 min room temperature.
Where [2] appears, read: read-out: hOCT2-HEK IC50, 10 nM [3H]MPP+ uptake.
The mark [3] stands for this setting: read-out: hOCT3-HEK IC50, 10 nM [3H]MPP+ uptake.
The mark [4] stands for this setting: read-out: DAT [3H]WIN 35428 IC50, mouse striatum homogenate, 4 nM [3H]WIN 35428, 60 min.

Where “and” joins values, the source holds several entries; their conditions need not be identical. Identical values can stand only once. Like-named read-outs stand apart in the source and are kept apart here.

Sequence of DAT (Q61327 whole entry): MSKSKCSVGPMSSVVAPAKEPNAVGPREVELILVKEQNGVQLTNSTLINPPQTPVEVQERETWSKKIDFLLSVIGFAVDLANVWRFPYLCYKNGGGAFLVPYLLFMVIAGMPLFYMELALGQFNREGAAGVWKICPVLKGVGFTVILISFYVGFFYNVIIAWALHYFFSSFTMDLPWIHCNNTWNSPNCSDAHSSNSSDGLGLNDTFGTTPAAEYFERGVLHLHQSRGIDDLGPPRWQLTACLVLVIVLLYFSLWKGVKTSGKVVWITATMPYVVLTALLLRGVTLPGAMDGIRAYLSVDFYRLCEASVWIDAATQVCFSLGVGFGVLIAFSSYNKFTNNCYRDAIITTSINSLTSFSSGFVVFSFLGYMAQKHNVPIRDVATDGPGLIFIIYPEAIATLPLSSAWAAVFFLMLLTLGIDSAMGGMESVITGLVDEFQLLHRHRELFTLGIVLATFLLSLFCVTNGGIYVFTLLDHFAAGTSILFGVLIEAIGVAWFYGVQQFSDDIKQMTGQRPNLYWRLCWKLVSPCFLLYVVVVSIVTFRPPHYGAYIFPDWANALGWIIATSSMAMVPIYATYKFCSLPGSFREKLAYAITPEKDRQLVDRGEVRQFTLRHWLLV
Sequence of mDAT (Q61327 whole entry): as above
Sequence of mNET (O55192 whole entry): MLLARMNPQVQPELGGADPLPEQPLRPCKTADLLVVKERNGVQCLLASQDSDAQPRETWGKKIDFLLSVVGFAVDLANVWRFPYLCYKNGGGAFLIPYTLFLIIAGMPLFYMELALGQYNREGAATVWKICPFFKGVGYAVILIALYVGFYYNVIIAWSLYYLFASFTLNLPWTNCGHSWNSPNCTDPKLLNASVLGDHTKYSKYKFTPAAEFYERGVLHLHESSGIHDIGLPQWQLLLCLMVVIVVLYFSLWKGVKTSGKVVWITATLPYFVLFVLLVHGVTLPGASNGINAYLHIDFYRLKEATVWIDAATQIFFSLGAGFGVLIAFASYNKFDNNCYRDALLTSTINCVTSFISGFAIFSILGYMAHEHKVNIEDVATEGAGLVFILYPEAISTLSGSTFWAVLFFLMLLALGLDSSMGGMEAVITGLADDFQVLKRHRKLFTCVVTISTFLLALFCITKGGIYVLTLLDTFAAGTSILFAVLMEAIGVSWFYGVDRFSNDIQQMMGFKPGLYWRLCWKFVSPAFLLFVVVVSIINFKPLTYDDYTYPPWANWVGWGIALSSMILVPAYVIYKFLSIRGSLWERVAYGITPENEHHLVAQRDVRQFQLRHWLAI
Sequence of mSERT (Q60857 whole entry): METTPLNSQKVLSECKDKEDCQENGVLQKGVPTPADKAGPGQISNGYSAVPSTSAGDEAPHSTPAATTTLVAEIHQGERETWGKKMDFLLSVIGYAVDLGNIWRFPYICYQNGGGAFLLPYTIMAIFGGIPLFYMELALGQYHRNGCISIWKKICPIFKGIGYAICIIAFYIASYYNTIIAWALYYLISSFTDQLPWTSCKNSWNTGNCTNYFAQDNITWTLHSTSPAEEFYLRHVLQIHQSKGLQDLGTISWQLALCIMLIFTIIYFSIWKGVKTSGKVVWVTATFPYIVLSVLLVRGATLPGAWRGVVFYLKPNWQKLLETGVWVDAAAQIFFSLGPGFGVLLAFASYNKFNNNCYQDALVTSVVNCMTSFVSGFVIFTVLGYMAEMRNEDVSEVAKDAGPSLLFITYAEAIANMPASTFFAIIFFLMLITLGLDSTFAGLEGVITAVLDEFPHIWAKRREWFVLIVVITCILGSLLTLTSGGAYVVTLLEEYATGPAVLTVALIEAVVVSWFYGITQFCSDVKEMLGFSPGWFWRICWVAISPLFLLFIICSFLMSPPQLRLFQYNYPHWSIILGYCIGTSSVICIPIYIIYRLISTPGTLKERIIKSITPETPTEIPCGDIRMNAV

As for `NCCc1ccc(O)c(O)c1` [Dopamine], the IC50 (commonly the concentration needed to halve the response being measured) on DAT was 99.8 µM.
On to `COC(=O)[C@H]1[C@@H](OC(=O)c2ccccc2)C[C@@H]2CC[C@H]1N2C` [Cocaine], for which the IC50 was 0.5 µM and 0.51 µM on mSERT (mSERT-HEK IC50, 100 nM [3H]5-HT uptake, 1 min); 0.18 µM against mDAT (mDAT-HEK IC50, 20 nM [3H]MPP+ uptake, 3 min); 1.2 µM and 1.18 µM against mNET (mNET-HEK IC50, 20 nM [3H]MPP+ uptake, 3 min).
In the case of `C[n+]1ccc(-c2ccccc2)cc1` [MPP^+, 1-methyl-4-phenylpyridinium], the IC50 was 1040 µM on hPMAT (setting [1]), 110 µM on hOCT2 (setting [2]) and 91 µM on hOCT3 (setting [3]).
With `C[C@]12C[C@H](O)[C@H]3[C@@H](CCC4=CC(=O)CC[C@@]43C)[C@@H]1CC[C@@H]2C(=O)CO` [Corticosterone], the IC50 was 1060 µM at hPMAT; 445 µM on mSERT; 79.6 µM on hOCT2 (hOCT2-HEK IC50, 10 nM [3H]MPP+ uptake); 0.6 µM and 0.62 µM at hOCT3 (hOCT3-HEK IC50, 10 nM [3H]MPP+ uptake); 364 µM and 365 µM against mDAT; 840 µM on mNET.
As to `COC(=O)[C@H]1[C@@H](c2ccc(F)cc2)C[C@@H]2CC[C@H]1N2C` [WIN 35428], at DAT (setting [4]), the IC50 was found to be 0.06 µM.
For the molecule `CCN1C(=Cc2ccc3ccccc3[n+]2CC)C=Cc2ccccc21` [Decynium 22, 1,1’-diethyl-2,2’-cyanine], the IC50 amounted to 1.1 µM on hPMAT (setting [1]); 10.8 µM at DAT (setting [4]); 7.9 µM on mSERT (read-out: mSERT-HEK IC50, 100 nM [3H]5-HT uptake, 1 min); 8 µM on mSERT (read-out: mSERT-HEK IC50, 100 nM [3H]5-HT uptake, 1 min, listed as D22); 10 µM on hOCT2 (setting [2]); 0.2 µM on hOCT3 (setting [3]). For the same molecule, the IC50 amounted to 12.9 µM at mDAT (read-out: mDAT-HEK IC50, 20 nM [3H]MPP+ uptake, 3 min) and 35 µM on mNET (read-out: mNET-HEK IC50, 20 nM [3H]MPP+ uptake, 3 min).

For the origin of these results see PMC6440482 (European journal of pharmacology, 2018).
